This is an account of results in patent US5998437A, “Benzimidazole derivatives” (Otsuka Pharmaceutical Co., Ltd., priority 1995, dated 1999).

By IC50 is commonly meant the concentration at which inhibition is half-maximal. Low values mean greater potency, high ones weaker potency.

Test [1] deals with human fibroblast. Put plainly: Activity for inhibiting proliferation of the human fibroblast ([3H]-thymidine uptake). The test is classed as cell-based. On the procedure: Test was conducted by the modified method of N. Morisaki [Atherosclerosis, Vol. 71, (1988), pp. 165-171]. The rat A10 cells (purchased from Dainippon Pharmaceutical Co., Ltd.) were inoculated on a 24 wells immunoplate at a density of 10,000 cells/well, and were cultured in 10% FBS (fetal bovine serum) for 2 days, and in order to introduce the cells into the resting stage, the cells were further cultured in a serum-free medium for 2 days. After that, 1% FBS was added thereto for stimulating the proliferation, of the cells and at the same time, a test compound and 0.5 μCi/well of [^3 H]-thymidine were added. As to the index of synthesized amount of DNA, the quantity of [^3 H]-thymidine being uptaken by the cells was measured at the time of 24 hours after the final cultivation was started.
(3) Measurement of the Activity for Inhibiting Proliferation of the Human Fibroblast
Similar to the activity for inhibiting proliferation of rat A10 cells as mentioned above, the activity for inhibiting proliferation of the human fibroblast (purchased from Dainippon Pharmaceutical Co., Ltd.) was determined by measuring the uptake amount of [^3 H]-thymidine.

Test [2] relates to rat mesangial cells. Put plainly: Activity for inhibiting proliferation of rat mesangial cells (PDGF-BB, [3H]-thymidine uptake). The test is classed as cell-based. The conditions noted are these: Mesangial cell, 5 ng/ml PDGF-BB, 0.5% FCS. The text has this:
(7) Determination of the Activity for Inhibiting Proliferation of Rat Mesangial Cells
In accordance with the method of F. Jaffer, et al. [Am. J. Pathol., Vol. 135, (1989), pages 261-269], the mesangial cells were collected. Under anesthetized condition, the kidney of a rat was aseptically enucleated and the medulla renis was cut out, then the cortex renis was pressed to a sieve (120 mesh) made of stainless steel. The fraction of cortex renis passed through the sieve was put on another sieve of 200 mesh and washed with PBS (phosphate-buffered saline), the fraction being remained on the sieve was confirmed as the glomerulus. This fraction was cultured in RPMI 1640 medium [containing 15% of fetal calf serum (FCS), and 5 μg/ml of insulin] for 4 weeks. This fraction was further subcultured twice, and the remaining cells were thought of as the mesangial cells for use of this experiment.
Determination of the activity for inhibiting proliferation of rat mesangial cells was conducted in accordance with the method of M. B. Ganz, et al. [Am. […]
Thus 2×10^4 /ml of mesangial cells were inoculated on a culture plate (48 wells, each well having the capacity of 0.5 ml), and cultured with RPMI medium (containing 15% FCS) for 3 days. […] The supernatant of the culture medium was taken up, and the amount of [^3 H]-thymidine up-taken into the cells was measured by use of scintillation counter.

As to `O=C(Nc1ccc2c(ccn2CCCn2ccnc2)c1)c1nc2ccc(Cl)cc2n1Cc1ccccc1` [Example 3, 1-benzyl-6-chloro-2-{1-[3-(imidazol-1-yl)propyl]indol-5-ylamino-carbonyl}benzimidazole], the half-maximal inhibitory concentration (IC50) is 40 nM in test [1] and 790 nM in test [2].
